Laboratory results taken from ChEMBL document CHEMBL3243998, “Conformation of 2,9-dimethyl-3'-hydroxy-5-phenyl-6,7-genzomorphan and its relation to other analgetics and enkephalin” (J Med Chem, 1978).

target: Opioid receptor (Rattus norvegicus, UniProt P33533+P34975+P33535); assay: Displacement of [3H]naloxone from Sprague-Dawley rat cerebellum opioid receptor assessed as relative receptor affinity by scintillation counting; format: protein assay; conditions: not given

In order of rising IC50:
1. C[C@H]1[C@H]2Cc3ccc(O)cc3[C@]1(c1ccccc1)CCN2C.Cl  0.019 µM
2. C[C@H]1[C@H]2Cc3ccc(O)cc3[C@]1(c1ccccc1)CC[N+]2(C)C.[I-]  0.32 µM
3. CN1CCC2(c3ccccc3)CC1Cc1ccccc12.O=C(O)C(O)C(O)C(=O)O (single isomer, unassigned; form 1)  0.6 µM
4. CN1CCC2(c3ccccc3)CC1Cc1ccccc12.O=C(O)C(O)C(O)C(=O)O (single isomer, unassigned; form 2)  3 µM
5. C[C@@H]1[C@@H]2Cc3ccc(O)cc3[C@@]1(c1ccccc1)CCN2C.Cl  10 µM

system: Mus musculus; assay: Analgesic activity in sc dosed mouse assessed as inhibition of phenylquinone-induced writhing; format: functional; parameters: log(1/ED50): unit not given here; conditions: not given

In order of rising “log(1/ED50)” value:
1. CCOC(=O)C1(c2ccccc2)CCN(C)CC1.Cl [MEPERIDINE HYDROCHLORIDE]  1.61
2. CN1CCC2(c3ccccc3)CC1Cc1ccccc12.O=C(O)C(O)C(O)C(=O)O (single isomer, unassigned; form 2)  1.71
3. CN1CCC2(c3ccccc3)CC1Cc1ccccc12.O=C(O)C(O)C(O)C(=O)O (single isomer, unassigned; form 1)  1.88
4. C[C@@H]1[C@@H]2Cc3ccc(O)cc3[C@@]1(c1ccccc1)CCN2C.Cl  1.9
5. C[C@H]1[C@H]2Cc3ccc(O)cc3[C@]1(c1ccccc1)CCN2C.Cl  2.82

Work on `CN1CCC2(c3ccccc3)CC1Cc1ccccc12.O=C(O)C(O)C(O)C(=O)O` (single isomer, unassigned; form 2) yielded an ED50 of 8 mg/kg.

same assay, conditions: Mus musculus, sc; read-out: ED50

In order of falling ED50:
1. CCOC(=O)C1(c2ccccc2)CCN(C)CC1.Cl [MEPERIDINE HYDROCHLORIDE]  7 mg/kg
2. CN1CCC2(c3ccccc3)CC1Cc1ccccc12.O=C(O)C(O)C(O)C(=O)O (single isomer, unassigned; form 1)  5.5 mg/kg
3. C[C@@H]1[C@@H]2Cc3ccc(O)cc3[C@@]1(c1ccccc1)CCN2C.Cl  4.2 mg/kg
4. C[C@H]1[C@H]2Cc3ccc(O)cc3[C@]1(c1ccccc1)CCN2C.Cl  0.5 mg/kg
5. CN1CC[C@]23CCCC[C@H]2[C@H]1Cc1ccc(O)cc13.O.O=C(O)C(O)C(O)C(=O)O  0.24 mg/kg
